Assay results as given in US20240010726A1, “LFA-1 SIGNALLING MEDIATOR FOR USE IN CANCER THERAPY” (Universität Basel, priority 2020, published 2024).

Key:
[1] = system: focal adhesion kinase (FAK), TNF; assay: FAK phosphorylation and TNF expression in activated PHA T cell blasts; format: cell-based, human; settings: Mg^2+-restricted conditions
Method: (§1) FIG. 2: Extracellular magnesium promotes memory-specific activation via LFA-1. Glycolytic switch of human EM CD8 T cells (a) and naïve CD8 T cells (b) subsets upon injection of anti-CD3 Ab only, or anti-CD3 and anti-CD28 Ab, was assessed by metabolic flux analysis in medium containing either 1.2 mM Mg^2+, 0 mM Mg^2+, or medium which was reconstituted from 0 mM to 1.2 mM Mg^2+ immediately prior to activation (0→1.2 mM Mg^2+). (a) Results for human effector memory (EM) and (b) for human naïve CD8 T cells. Glycolytic switch was quantified by subtracting […] measurements. (c) Flow cytometric analysis of surface activation markers on human EM CD8 T cells 24 hours after activation by plate-bound anti-CD3 Ab and soluble anti-CD28 Ab, in 1.2 mM and 0 mM Mg^2+ media, respectively. (d) Abundance of inflammatory cytokines in corresponding EM CD8 T cell culture supernatants, determined by CBA. (e) CD11a (LFA-1) surface expression on human naïve and EM CD8 T cells as well PHA T cell blasts. Flow cytometry-based assessment of total LFA-1 expression assessed by mAb TS2/4 (f), closed conformation of αL by mAb HI111 (g), extended conformation of LFA-1 by mAb Kim127 (h), open head-piece conformation of LFA-1 by mAb m24 (i), phosphorylation of focal adhesion kinase (FAK) […] as well TNF expression (k)±TCR-induced activation in different extracellular Mg^2+ concentrations. […]

human naïve CD8 T cells = assay: Metabolic flux analysis, glycolytic switch of naïve CD8 T cells; format: cell-based; settings: anti-CD3 or anti-CD3/anti-CD28 Ab; 0 mM vs 1.2 mM Mg^2+
Method: as §1

Q: `[Mg+2]` [Mg^2+, Magnesium] was tested. Which “Phosphorylation of focal adhesion kinase (FAK)” value [1] did it give?
A: Its value is “decreased”.

Q: And the “Glycolytic switch (ECAR) of naïve CD8 T cells” value (human naïve CD8 T cells)?
A: Its value is “no impaired activation-induced upregulation of glycolysis”.
